Experimental findings from patent US20160108049A1 (TAKEDA Gmbh, priority 2011, published 2016) are described below.

The target in one assay is T1, human PDE5 (Homo sapiens, UniProt O76074).
T1 construct: from tissue; host or cells: human platelets from fresh donor blood (platelet lysate)
Description: Inhibition of PDE5 activity (platelet lysate, SPA assay). It counts as biochemical. Conditions: 0.5 μM cGMP, read-out: PDE5 Inhibitory values measured as -logIC50 (converted). The procedure: Method for Measuring Inhibition of PDE5 Activity
As a source for human PDE5, platelets were used. For that purpose, 150 ml fresh blood from human donors anticoagulated with citrate [final concentration 0.3% (w/v)] was centrifuged at 200 g for 10 min to obtain the so-called platelet-rich-plasma (PRP) as a supernatant. […] After centrifugation (1,400 g, 10 min) the cell pellet was resuspended in 3 ml homogenization buffer (NaCl 140 mM, KCl 3.8 mM, EGTA (ethylene glycol tetraacetic acid) 1 mM, MgCl2 1 mM, Tris-HCl 20 mM, beta-mercaptoethanol 1 mM, pH 8.2) plus protease-inhibitor mix resulting in final concentrations of 0.5 mM Pefablock (Roche), 10 μM Leupeptin, 5 μM Trypsine inhibitor, 2 mM Benzamidin and 10 μM Pepstatin A. The suspension was sonicated and thereafter centrifuged for 15 min at 10,000 g. The resulting supernatant (platelet lysate) was used for enzymatic assays.
PDE5 activities were measured in a 96-well platform using SPA (scintillation proximity assay) yttrium silicate beads (RPNQ1050 from GE Healthcare). In a first step the PDE activity operated hydrolysis of either [^3H] cGMP (substrate) into [^3H] 5′GMP. In a second step substrate and product were distinguished following addition of SPA yttrium silicate beads. Indeed, in the presence of zinc sulphate the linear [^3H] […] Close proximity of bound [^3H] […] The test volume was 100 μl and contained 20 mM Tris buffer (pH 7.4), 0.1 mg of BSA (bovine serum albumin)/ml, 5 mM Mg^2+, 1 μM motapizone (PDE3 Inhibitor), 10 nM PDE2 inhibitor 2-(3,4-dimethoxybenzyl)-7-[(1R,2R)-2-hydroxy-1-(2-phenylethyl)propyl]-5-methylimidazo[5,1-f][1,2,4]triazin-4(3H)-one, 0.5 μM cGMP (cyclic guanosine monophosphate) (including about 50,000 cpm of [3H]cGMP as a tracer) (substrate), 1 μl of the respective compound dilution in dimethylsulfoxide (DMSO) and sufficient PDE5-containing platelet lysat (10,000×g supernatant, see above) to ensure that 10-20% of the cGMP was converted under the said experimental conditions. […] After a preincubation of 5 min at 37° C., the reaction was commenced by adding the substrate (cGMP) and the assay was incubated for a further 15 min. The reaction was terminated by adding SPA beads (50 μl). In agreement with the manufacturer's instructions, the SPA beads had previously been resuspended in water, but were then diluted 1:3 (v/v) in water. This diluted solution also contained 3 mM 8-methoxymethyl-3-isobutyl-1-methylxanthine (IBMX) to ensure a complete block of PDE activity. Once the beads were sedimented (>30 min), the MTP's were analyzed in commercially available luminescence detection devices. The corresponding IC50 values of the compounds for inhibition of PDE activity were determined from the concentration-effect curves by means of non-linear regression.
(§1) The numbers of the compounds correspond to the numbers of the examples.

The target of another assay is T2, PDE4B1 (Homo sapiens, UniProt Q07343).
T2 construct: made in house; host or cells: SF21 insect cells (baculovirus; virus made in SF9 cells, pCR-Bac vector)
Description: Inhibition of PDE4 activity (PDE4B1, SPA assay). In kind it is biochemical. Conditions: recombinant PDE4B1, 0.5 μM cAMP; read-out: PDE4B1 Inhibitory values measured as -logIC50 (converted). The procedure: Method for Measuring Inhibition of PDE4 Activity
The PDE4B1 (GB no. L20966) was a gift of Prof. M. Conti (Stanford University, USA). It was amplified from the original plasmid (pCMV5) via PCR with primers Rb18 (5′-[…]-3′) and Rb10 (5′-[…]-3′) and cloned into the pCR-Bac vector (Invitrogen, Groningen, NL).
The recombinant baculovirus was prepared by means of homologous recombination in SF9 insect cells. The expression plasmids were cotransfected with Baculo-Gold DNA (Pharmingen, Hamburg) using a standard protocol (Pharmingen, Hamburg). Wt virus-free recombinant virus supernatants were selected using plaque assay methods. After that, high-titre virus supernatants were prepared by amplifying 3 times. PDE4B1 was expressed in SF21 cells by infecting 2×10^6 cells/ml with an MOI (multiplicity of infection) between 1 and 10 in the serum-free SF900 medium (GIBCO Life Technologies, Karlsruhe, Germany) The cells were cultured at 28° C. for 48-72 hours, after which they were pelleted for 5-10 min at 1000×g and 4° C.
The SF21 insect cells were resuspended, at a concentration of approx. 10^7 cells/ml, in ice-cold (4° C.) homogenization buffer (20 mM Tris, pH 8.2, containing the following additions: 140 mM NaCl, 3.8 mM KCl, 1 mM EGTA, 1 mM MgCl2, 10 mM β-mercaptoethanol, 2 mM benzamidine, 0.4 mM Pefablock, 10 μM leupeptin, 10 μM pepstatin A, 5 μM trypsin inhibitor) and disrupted by ultrasonication. The homogenate was then centrifuged for 10 min at 1000×g and the supernatant was stored at −80° C. until subsequent use (see below). The protein content was determined by the Bradford method (BioRad, Munich) using BSA (Bovine serum albumin) as the standard.
PDE4B1 activities were measured in a 96-well platform using SPA (scintillation proximity assay) yttrium silicate beads (RPNQ1050 from GE Healthcare). In a first step the PDE activity operated hydrolysis of either [^3H] cAMP (substrate) into […]. In a second step substrate and product were distinguished following addition of SPA yttrium silicate beads. […] Close proximity of bound [^3H] […] The test volume was 100 μl and finally contained 20 mM Tris buffer (pH 7.4), 0.1 mg/ml of BSA, 5 mM Mg^2+, 0.5 μM cAMP (including about 50,000 cpm of [3H]cAMP) as substrate, 1 μl of the respective substance dilution in DMSO and sufficient recombinant PDE (1000×g supernatant, see above) to ensure that 10-20% of the cAMP was converted under the said experimental conditions. […] After a preincubation of 5 min at 37° C., the reaction was commenced by adding the substrate (cAMP) and the assays were incubated for a further 15 min. Reactions were terminated by adding SPA beads (50 μl). In agreement with the manufacturer's instructions, the SPA beads had previously been resuspended in water, but were then diluted 1:3 (v/v) in water. This diluted solution further contained 3 mM IBMX (isobutylmethylxanthine) to ensure a complete block of PDE activity. Once the beads were sedimented (>30 min), the MTP's (micro titerplate) were analyzed in commercially available […]. The corresponding IC50 values of the compounds for inhibition of PDE4B1 activity were determined from the concentration-effect curves by means of non-linear regression.
as §1

T2 sequence (Q07343 whole entry): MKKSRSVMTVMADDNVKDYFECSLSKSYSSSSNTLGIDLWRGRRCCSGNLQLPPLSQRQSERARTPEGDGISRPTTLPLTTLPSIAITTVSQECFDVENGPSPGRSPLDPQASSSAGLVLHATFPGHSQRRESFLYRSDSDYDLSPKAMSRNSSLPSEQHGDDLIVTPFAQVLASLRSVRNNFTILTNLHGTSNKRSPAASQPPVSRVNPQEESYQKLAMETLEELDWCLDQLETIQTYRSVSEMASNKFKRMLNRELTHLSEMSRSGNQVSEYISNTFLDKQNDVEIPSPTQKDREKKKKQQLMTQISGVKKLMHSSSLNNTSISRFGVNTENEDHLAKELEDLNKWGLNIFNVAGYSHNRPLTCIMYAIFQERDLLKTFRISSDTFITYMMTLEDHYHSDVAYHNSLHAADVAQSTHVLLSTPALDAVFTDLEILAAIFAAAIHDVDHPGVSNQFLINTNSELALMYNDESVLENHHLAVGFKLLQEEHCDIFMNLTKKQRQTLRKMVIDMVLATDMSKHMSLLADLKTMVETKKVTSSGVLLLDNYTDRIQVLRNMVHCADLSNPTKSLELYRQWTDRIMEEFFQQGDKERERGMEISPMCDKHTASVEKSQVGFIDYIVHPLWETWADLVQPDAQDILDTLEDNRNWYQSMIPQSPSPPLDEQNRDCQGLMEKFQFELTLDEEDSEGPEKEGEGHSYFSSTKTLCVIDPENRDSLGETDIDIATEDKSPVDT

`COc1ccc(C2=NN(C3CCN(C(=O)[C@H](Cc4ccc(F)cc4)NC(=O)c4c[nH]c5c(-c6c(OCC7CC7)ccc7c6OCO7)ncnc45)CC3)C(=O)[C@@H]3CCCC[C@H]23)cc1OC` [Example 47, 4-[5-(cyclopropylmethoxy)-1,3-benzodioxol-4-yl]-N-[(2S)-1-{4-[(4aS,8aR)-4-(3,4-dimethoxyphenyl)-1-oxo-4a,5,6,7,8,8a-hexahydrophthalazin-2(1H)-yl]piperidin-1-yl}-3-(4-fluorophenyl)-1-oxopropan-2-yl]-5H-pyrrolo[3,2-d]pyrimidine-7-carboxamide]: the IC50 on human PDE5 and at PDE4B1 was 1 to 10 nM each time.

For the compound `COc1ccc(C2=NN(C3CCN(C(=O)[C@@H](Cc4ccccc4C(F)(F)F)NC(=O)c4c[nH]c5c(-c6c(OCC7CC7)ccc7c6OCO7)ncnc45)CC3)C(=O)[C@@H]3CCCC[C@H]23)cc1OC` [Example 33, 4-[5-(cyclopropylmethoxy)-1,3-benzodioxol-4-yl]-N-{(2R)-1-{4-[(4aS,8aR)-4-(3,4-dimethoxyphenyl)-1-oxo-4a,5,6,7,8,8a-hexahydrophthalazin-2(1H)-yl]piperidin-1-yl}-1-oxo-3-[2-(trifluoromethyl)phenyl]propan-2-yl}-5H-pyrrolo[3,2-d]pyrimidine-7-carboxamide], the IC50 on human PDE5 is < 1 nM; at PDE4B1, 1 to 10 nM.

On to `CC[C@H](NC(=O)c1c(C)[nH]c2c(-c3c(OCC4CC4)ccc4c3OCO4)ncnc12)C(=O)N1CCC(N2N=C(c3ccc(OC)c(OC)c3)[C@H]3CCCC[C@H]3C2=O)CC1` [Example 64, 4-[5-(cyclopropylmethoxy)-1,3-benzodioxol-4-yl]-N-[(2S)-1-{4-[(4aS,8aR)-4-(3,4-dimethoxyphenyl)-1-oxo-4a,5,6,7,8,8a-hexahydrophthalazin-2(1H)-yl]piperidin-1-yl}-1-oxobutan-2-yl]-6-methyl-5H-pyrrolo[3,2-d]pyrimidine-7-carboxamide], for which the IC50 at human PDE5 and at PDE4B1 was < 1 nM each time.

Regarding `COc1ccc(C2=NN(C3CCN(C(=O)[C@H](Cc4ccc(O)cc4)NC(=O)c4c[nH]c5c(-c6c(OCC7CC7)ccc7c6OCO7)ncnc45)CC3)C(=O)[C@@H]3CCCC[C@H]23)cc1OC` [Example 53, 4-[5-(cyclopropylmethoxy)-1,3-benzodioxol-4-yl]-N-[(2S)-1-{4-[(4aS,8aR)-4-(3,4-dimethoxyphenyl)-1-oxo-4a,5,6,7,8,8a-hexahydrophthalazin-2(1H)-yl]piperidin-1-yl}-3-(4-hydroxyphenyl)-1-oxopropan-2-yl]-5H-pyrrolo[3,2-d]pyrimidine-7-carboxamide], the IC50 at human PDE5 was 1 to 10 nM; at PDE4B1, < 1 nM.

Consider `COc1ccc(C2=NN(C3CCN(C(=O)[C@H](CCC(=O)N4CCCCC4)NC(=O)c4c[nH]c5c(-c6c(OCC7CC7)ccc7c6OCO7)ncnc45)CC3)C(=O)[C@@H]3CCCC[C@H]23)cc1OC` [Example 79, 4-[5-(cyclopropylmethoxy)-1,3-benzodioxol-4-yl]-N-[(2S)-1-{4-[(4aS,8aR)-4-(3,4-dimethoxyphenyl)-1-oxo-4a,5,6,7,8,8a-hexahydrophthalazin-2(1H)-yl]piperidin-1-yl}-1,5-dioxo-5-(piperidin-1-yl)pentan-2-yl]-5H-pyrrolo[3,2-d]pyrimidine-7-carboxamide], for which the IC50 on human PDE5 and on PDE4B1 was 1 to 10 nM in each case.

`COc1ccc(C2=NN(C3CCN(C(=O)[C@H](Cc4cccc(C)c4)NC(=O)c4c[nH]c5c(-c6c(OCC7CC7)ccc7c6OCO7)ncnc45)CC3)C(=O)[C@@H]3CCCC[C@H]23)cc1OC` [Example 3, 4-[5-(cyclopropylmethoxy)-1,3-benzodioxol-4-yl]-N-[(2S)-1-{4-[(4aS,8aR)-4-(3,4-dimethoxyphenyl)-1-oxo-4a,5,6,7,8,8a-hexahydrophthalazin-2(1H)-yl]piperidin-1-yl}-3-(3-methylphenyl)-1-oxopropan-2-yl]-5H-pyrrolo[3,2-d]pyrimidine-7-carboxamide]: the IC50 is 1 to 10 nM at human PDE5 and < 1 nM at PDE4B1.

Regarding `COc1ccc(C2=NN(C3CCN(C(=O)[C@H](Cc4cccs4)NC(=O)c4c[nH]c5c(-c6c(OCC7CC7)ccc7c6OCO7)ncnc45)CC3)C(=O)[C@@H]3CCCC[C@H]23)cc1OC` [Example 75, 4-[5-(cyclopropylmethoxy)-1,3-benzodioxol-4-yl]-N-[(2S)-1-{4-[(4aS,8aR)-4-(3,4-dimethoxyphenyl)-1-oxo-4a,5,6,7,8,8a-hexahydrophthalazin-2(1H)-yl]piperidin-1-yl}-1-oxo-3-(thiophen-2-yl)propan-2-yl]-5H-pyrrolo[3,2-d]pyrimidine-7-carboxamide], the results for the IC50 at human PDE5 and on PDE4B1 were 1 to 10 nM and < 1 nM, respectively.

As to `COc1ccc(C2=NN(C3CCN(C(=O)[C@H](CN(C)C)NC(=O)c4c[nH]c5c(-c6c(OCC7CC7)ccc7c6OCO7)ncnc45)CC3)C(=O)[C@@H]3CCCC[C@H]23)cc1OC` [Example 97, 4-[5-(cyclopropylmethoxy)-1,3-benzodioxol-4-yl]-N-[(2S)-1-{4-[(4aS,8aR)-4-(3,4-dimethoxyphenyl)-1-oxo-4a,5,6,7,8,8a-hexahydrophthalazin-2(1H)-yl]piperidin-1-yl}-3-(dimethylamino)-1-oxopropan-2-yl]-5H-pyrrolo[3,2-d]pyrimidine-7-carboxamide], the IC50 at human PDE5 and on PDE4B1 was 1 to 10 nM each time.
